# According to patent US6303591A, “21-hydroxy-6,19-oxidoprogesterone (21OH-6OP) and its use as medicament for treating excess of glucocorticoids” (Applied Research Systems ARS Holding NV, priority 1997, dated 2001):
# pKd: −log10 of the molar value. Entries after “also recorded” stand apart in the source; their conditions may differ.
# Tests used:
# [1] = molecular target: T1, CBG partially purified from rat plasma (Rattus norvegicus, UniProt P31211); assay: displacement of (^3 H)-B binding to partially purified CBG
# T1 construct: CBG partially purified from rat plasma; from tissue; host or cells: rat plasma, partially purified
# T1 sequence (P31211 23-396): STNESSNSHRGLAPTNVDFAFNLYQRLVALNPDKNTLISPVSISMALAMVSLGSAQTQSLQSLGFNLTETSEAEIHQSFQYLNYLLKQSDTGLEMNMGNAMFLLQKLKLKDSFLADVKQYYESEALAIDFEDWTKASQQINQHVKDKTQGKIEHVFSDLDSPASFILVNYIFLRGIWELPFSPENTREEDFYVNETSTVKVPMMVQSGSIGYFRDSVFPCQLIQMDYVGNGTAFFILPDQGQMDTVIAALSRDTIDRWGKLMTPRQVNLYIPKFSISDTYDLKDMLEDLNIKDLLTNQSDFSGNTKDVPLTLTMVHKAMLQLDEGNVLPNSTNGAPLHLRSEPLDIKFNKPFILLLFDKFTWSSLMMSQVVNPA
# Protocol: Relative binding affinity (RBA) for partially purified CBG was determined by steroid competition for (^3 H)-B binding as described previously (14).
# The displacement curve of 6,19-oxidoprogesterone is included for comparative purposes.
# type II sites (GR) = molecular target: T2, type II sites (GR) (Rattus norvegicus, UniProt P06536); assay: tracer binding (Scatchard) to kidney type II sites (GR); conditions: kidney cytosol, 2.5 μM 21OH-6OP
# T2 construct: type II receptors in kidney cytosols; from tissue; host or cells: kidney cytosol, adrenalectomized male Sprague-Dawley rats
# T2 sequence (P06536 1-795): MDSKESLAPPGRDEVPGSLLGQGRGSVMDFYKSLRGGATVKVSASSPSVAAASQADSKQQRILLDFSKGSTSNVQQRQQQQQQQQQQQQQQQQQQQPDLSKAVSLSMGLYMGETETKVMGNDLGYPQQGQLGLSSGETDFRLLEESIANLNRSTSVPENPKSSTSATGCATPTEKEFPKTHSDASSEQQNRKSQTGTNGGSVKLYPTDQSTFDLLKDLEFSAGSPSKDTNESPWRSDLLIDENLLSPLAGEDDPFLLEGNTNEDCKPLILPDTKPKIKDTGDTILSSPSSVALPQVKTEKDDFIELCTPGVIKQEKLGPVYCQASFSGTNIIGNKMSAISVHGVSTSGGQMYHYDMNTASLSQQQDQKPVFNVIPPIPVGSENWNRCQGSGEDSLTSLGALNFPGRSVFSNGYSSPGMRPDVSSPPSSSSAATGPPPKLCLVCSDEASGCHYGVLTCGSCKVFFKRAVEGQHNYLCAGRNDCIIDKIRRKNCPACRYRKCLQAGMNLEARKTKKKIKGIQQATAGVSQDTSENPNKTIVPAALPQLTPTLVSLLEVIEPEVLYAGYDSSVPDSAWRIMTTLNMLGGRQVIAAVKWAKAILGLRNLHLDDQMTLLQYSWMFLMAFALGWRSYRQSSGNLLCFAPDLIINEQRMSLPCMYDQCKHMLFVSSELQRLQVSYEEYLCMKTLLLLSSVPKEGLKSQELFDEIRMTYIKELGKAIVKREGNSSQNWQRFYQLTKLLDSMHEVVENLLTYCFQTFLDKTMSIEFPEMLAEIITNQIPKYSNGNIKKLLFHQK
# Protocol: Binding Assay: Adrenalectomized male Sprague-Dawley rats were bled to death by heart puncture. Cold 0.9% NaCI was injected profusely through the aorta until organs were completely blanched. Thymuses were used as a source of GR and kidneys as a source of MR. Homogenization and incubation conditions were performed as previously described, (14) and (15), respectively. Briefly, homogenates performed in cold TEGM buffer at pH 7.4 (0.1 M Tris-HCl, 10 mM EDTA, 10 mM α-mercaptoethanol, 20 mM Na2 MoO4, 25% glycerol, 0.1 mM PMSF, 2.0 TIU/ml aprotinin and 1 mg% Leupeptin) were centrifuged at 37,000 rev. for 30 min at 0° C. Supernatants from this centrifugation are referred to as "cytosol". […] (^3 H)-P4 binding to uterus PR was assayed on immature female rats according to Jordan et al (16).
# To study the binding of ALDO to kidney- MR without the competitive influence of the relatively more abundant GR, GR was removed with the specific ligand RU28362 (7).
# The calculated Kd for type I sites in different conditions ranges between 0.4 and 1 nM (Table 1) which is at least eighty times higher than the affinity for type II sites.
# liver glycogen = liver glycogen deposition in vivo, adrenalectomized rats; design: species or system rat; conditions: FIG. 3-A; 100 μg steroid/100 g body weight
# Protocol: (§1) FIG. 3: Biological Properties of 21OH-6OP: A) Glycogen storage in vivo: 100 μg steroid/100 g body weight of male rats were injected as indicated in Example 1. Liver glycogen was purified and quantified with Krisman's reagent (17). Controls were injected with vehicle. Results are expressed as means±SEM (n=6). (*): different from controls P<0.02. B) TAT induction in vitro: rat hepatocytes were incubated for 5 h in HAM-F12 medium in the presence of 100 nM steroid and TAT activity was measured. Results are expressed as percentage of enzyme activity (means±SEM, n=4) over controls incubated in the presence of vehicle. (*) different from controls P<0.01. C) Sodium-retaining activity: adrenalectomized rats were treated with the indicated dose of steroids. Results are expressed as the ratio of sodium-excretion rates of steroid-injected animals to the excretion rates of rats injected with vehicle.
# (§2) Bioassay : Liver glycogen deposition was measured on adrenalectoniized male Sprague-Dawley rats (180-220 g) as follows: steroids were dissolved in ethanol/propylene glycol/0.9% NaCl solution (3:3:34) and 100 μg steroid/l00 g body weight were injected i.m. the previous night. On the morning of the experiment this dose was reinjected intraperitoneally. Three hours later the rats were killed by cervical dislocation and livers were immediately removed. Glycogen purification and quantification were carried out according to Krisman's method (17). Na^+ -retaining properties were measured as described (5). Tyrosine aminotransferase (TAT) was induced in rat hepatocytes isolated by the procedure of Fry et al (18). TAT activity was determined according to Granner and Tomkins (19).
# [2] = test system: TAT induction in hepatocytes (GR); assay: antagonism of TAT induction by DXM or B in hepatocytes; assay type: cell-based, rat
# Protocol: (§3) Hatched bars represent incubations performed in the presence of vehicle instead of agonist.
# as §2
# (§4) The basal TAT activity in hepatocytes, denominated control in the figure, was measured by adding vehicle (final concentration: 0.2% ethanol) to the culture. […] 2.5 μM 21OH-6OP inhibits 80% of TAT induction when concubated with B or DXM.
# [3] = test system: tyrosine aminotransferase (TAT) induction in rat hepatocytes; assay: TAT induction in rat hepatocytes (agonism); assay type: cell-based; conditions: FIGS. 3-B and 4 (hatched bars), no agonist added
# Protocol: as §1, §3, §2, §4
structure (smiles),measurement,setting,value
"C[C@]12CC[C@H]3[C@@H](C[C@H]4OC[C@@]35CCC(=O)C=C45)[C@@H]1CC[C@@H]2C(=O)CO [21OH-6OP, 21-hydroxy-6,19-oxidoprogesterone]","increase of binding to CBG by 21-hydroxyl, relative to 6OP",[1]; 21OH-6OP vs 6OP,hundred times
same,inhibition at 2.5 µM,"[1]; 12 h, 2.5 μM, FIG. 2-B, read-out: block of CBG binding sites",~60%
same,pKd,"[1]; partially purified CBG, (^3 H)-B, 12 h at 0° C., read-out: RBA for CBG (Kd)",5.90
same,masking of (^3 H)-ALDO cross-reaction with GR / block of type II receptors,type II sites (GR),able to mask the cross reaction of (^3 H)-ALDO with GR; also recorded: able to block type II receptors in kidney cytosols
same,GC response: liver glycogen,liver glycogen,neither 6OP nor 21OH-6OP evoke these responses
same,inhibition of TAT induction by B,[2]; 2.5 μM steroid vs 100 nM B,80%
same,inhibition of TAT induction by DXM,[2]; 2.5 μM steroid vs 100 nM DXM,80%
same,antagonism of TAT induction by B (in words),"[2]; 2.5 μM steroid, 100 nM B",shows antagonist effect on TAT induction; also recorded: antagonize TAT induction by corticosterone and decamethasone; also recorded: significantly inhibited
same,antagonism of TAT induction by DXM (in words),"[2]; 2.5 μM steroid, 100 nM DXM",shows antagonist effect on TAT induction; also recorded: antagonize TAT induction by corticosterone and decamethasone; also recorded: significantly inhibited
same,TAT induction (in words),[3],neither 6OP nor 21OH-6OP evoke these responses; also recorded: Neither 6OP nor 21OH-6OP facilitate TAT induction
